Counter-ions that a name gives are not always drawn. Like-named read-outs stand apart in the source and are kept apart here.
What was measured:
[1] = Plasma pharmacokinetics in mice, routes of administration; type: in vivo; settings: for Vd: read-out: Vss
Protocol: Pharmacokinetic studies were carried out on various liposomal formulations of GI147211 in rats and mice by IV bolus administration. Plasma samples were precipitated with acetonitrile and the supematant for each sample was analyzed by reverse phase HPLC using isocratic elution and monitoring fluorescence. […] Concentration values were determined for unknown samples and quality control samples based on interpolation using a linear fit of the standard samples. In each study the average plasma concentration at each time point was calculated and utilized in the pharmacokinetic analysis. Noncompartmental analysis were carried out using WinNonlin™ (Standard Edition, version 1.5 ©, Scientific Consulting, Inc.) and the following parameters were calculated: the maximum concentration extrapolated at zero time (Cmax), the area under the curve from zero to infinite time (AUC total), the terminal phase half life (t½), the clearance rate (C1), and the volume of distribution at steady state (Vss).
Animals received a 1 mg/kg dose by intravenous (I.V.) intraperatoneal (I.P.) or subcutaneous administration and plasma samples were collected over 24 hours.

[2] = Precipitation of GI147211 with counterion excipients (HPLC of supernatant); type: physicochemical
Protocol: The excipients include, but are not limited to, the acid, sodium or ammonium forms of monovalent anions such as chloride, acetate, lactobionate and formnate; divalent anions such as succinate, aspartate and sulfate; and trivalent ions such as citrate and phosphate. To assess the relative degree of precipitation brought about with each excipient, 5 mg/ml solutions of GI147211 were prepared at low pH (2±0.5) and different counterions were added. The solutions of GI147211 and counterion were allowed to stand for 15 to 20 minutes, then centrifuiged at 3600 rpm for 10 minutes to isolate the precipitate. The quantity of GI147211 remaining in solution for each sample was then assessed by assaying the supernatants using HPLC with the following conditions: C18 ODS Hypersil column from Keystone, mobile phase of 30/70 (v/v) acetonitrile/0.1% acetic acid +0.1% aqueous triethylamine buffer, pH 3.30 with LTV detection at 270 nm. The amount of GI147211 precipitated was also tabulated by the taking the difference of the concentration of the remaining soluble fraction from Smg/ml, the original GI1147211 concentration in solution. Each number is expressed in Table 6 as percentage of the original solution concentration of 5 mg/ml.
To more fully explore the concentration dependence of GI147211 precipitation, 5 mg/ml solutions of the drug were prepared as described in Example 3 and titrated with increasing concentrations of the counterion excipients sulfate, citrate, phosphate and chloride. The solutions of GI147211 and counterion were allowed to stand for 15 to 20 minutes, then centrifuged at 3600 rpm for 10 minutes to isolate the precipitate and the supernatants were assayed as described in Example 3.
In a separate study, precipitation of the camptothecin GI147211 was examined at the predicted concentration in the interior of the liposome (approx. 40 mg/ml camptothecin GI147211) after loading in the presence of 50 mM ammonium sulfate.

[3] = test system: A673 (Rhabdomyosarcoma); assay: 3H-thymidine incorporation cytotoxicity assay, A673; type: cell-based, human; settings: Homo sapiens, A673, 24 h; read-out: Median IC50
Protocol: (§1) In vitro efficacy screening has been performed using GI147211 and liposomal formulations of GI147211. […] Standard tumor cell-based cytototoxicity assays assessing ^3H-thymidine incorporation were performed.
(§2) Tumor cells were seeded into 96-well tissue culture plates (1×10^4 cells/well)≡4 h prior to experimentation. […] Positive and negative (Tris treated) control groups were included on each assay plate. Tumor cells were then labeled with 0.25 μCi of [methyl-^3H] thymidine and incubated for 42 h under tissue culture conditions (37° C., 5% CO2, 100% relative humidity), except for C6, U251, A673 and B16-F1 cells which were incubated for 24 h. Cells were then lysed, harvested onto glass-fiber filters and unincorporated [methyl-^3H] thymidine removed by filter washing. Filters were processed for scintillation counting and cpm-^3H/well determined. […] Data are presented from multiple sets of experimentation, involving multiple liposomal formulations of GI147211.

[4] = test system: B16-F1 (Melanoma, murine); assay: 3H-thymidine incorporation cytotoxicity assay, B16-F1; type: cell-based; settings: Mus musculus, B16-F1, 24 h; read-out: Median IC50
Protocol: as §1, §2

[5] = test system: BT-20 (Breast); assay: 3H-thymidine incorporation cytotoxicity assay, BT-20; type: cell-based, human; settings: Homo sapiens, BT-20, 42 h; read-out: Median IC50
Protocol: as §1, §2

[6] = test system: ES-2 (ovarian carcinoma); assay: 3H-thymidine incorporation cytotoxicity assay, ES-2; type: cell-based, human; settings: Homo sapiens; ES-2, 42 h; read-out: Median IC50
Protocol: as §1, §2

[7] = test system: H460 (Lung, Non-Small Cell); assay: 3H-thymidine incorporation cytotoxicity assay, H460; type: cell-based, human; settings: Homo sapiens, NCI-H460, 42 h; read-out: Median IC50
Protocol: as §1, §2

[8] = test system: HT-29 (Colon); assay: 3H-thymidine incorporation cytotoxicity assay, HT-29; type: cell-based, human; settings: Homo sapiens, HT-29, 42 h; read-out: Median IC50
Protocol: as §1, §2

[9] = test system: KB (oralpharyngial carcinoma); assay: 3H-thymidine incorporation cytotoxicity assay, KB; type: cell-based, human; settings: Homo sapiens, 42 h, read-out: Median IC50
Protocol: as §1, §2

[10] = test system: LOX (melanoma); assay: 3H-thymidine incorporation cytotoxicity assay, LOX; type: cell-based, human; settings: Homo sapiens, 42 h, read-out: Median IC50
Protocol: as §1, §2

[11] = test system: MDA-MB-468 (Breast); assay: 3H-thymidine incorporation cytotoxicity assay, MDA-MB-468; type: cell-based, human; settings: Homo sapiens, MDA-MB-468, 42 h; read-out: Median IC50
Protocol: as §1, §2

[12] = test system: U937 (Lymphoma); assay: 3H-thymidine incorporation cytotoxicity assay, U937; type: cell-based, human; settings: Homo sapiens, U-937; U937, 42 h; read-out: Median IC50
Protocol: as §1, §2

[13] = test system: tumor cell; settings: tumor cell cytotoxicity assays; cited from earlier work
[14] = mouse, plasma, iv, 1 mg/kg, 1 mg/kg IV bolus
[15] = mouse, plasma, iv, 1 mg/kg, I.V.
[16] = 5 mg/ml GI147211, pH 2±0.5, aspartate 50 mM
[17] = 5 mg/ml GI147211, pH 2±0.5, chloride 100 mM
[18] = 5 mg/ml GI147211, pH 2±0.5, citrate 20 mM
[19] = 5 mg/ml GI147211, pH 2±0.5, citrate 50 mM
[20] = 5 mg/ml GI147211, pH 2±0.5, formate 50 mM
[21] = 5 mg/ml GI147211, pH 2±0.5, lactobionate 50 mM
[22] = 5 mg/ml GI147211, pH 2±0.5, phosphate 100 mM
[23] = 5 mg/ml GI147211, pH 2±0.5, succinate 500 mM
[24] = 5 mg/ml GI147211, pH 2±0.5, sucrose 300 mM
[25] = 5 mg/ml GI147211, pH 2±0.5, sulfate 20 mM
[26] = 5 mg/ml GI147211, pH 2±0.5, sulfate 50 mM
[27] = approx. 40 mg/ml GI147211, 50 mM ammonium sulfate

CCC1(O)C(=O)OCc2c1cc1n(c2=O)Cc2c-1nc1cc3c(cc1c2CN1CCN(C)CC1)OCCO3 (stereo in doubt) [GI147211, 7-(4-methylpiperazinomethylene)-10,11-ethylenedioxy-20(S)-camptothecin dihydrochloride]
AUC (total) ([1]; 1 mg/kg IV bolus): 140 ng·h/mL
AUC (total) ([1]; 1 mg/kg, I.P.): 47 ng·h/mL
AUC (total) ([1]; 1 mg/kg, I.V.): 140 ng·h/mL
Cmax ([1]; 1 mg/kg, I.V.): 80 ng/mL
AUC (total) ([1]; 1 mg/kg, Sub. Q): 55 ng·h/mL
Cmax ([1]; mouse, plasma, 1 mg/kg IV bolus, read-out: Cmax): 80 ng/mL
half-life ([1]; mouse, plasma, 1 mg/kg IV bolus, read-out: t½ (converted)): 113 min
Tmax ([1]; mouse, plasma, ip, 1 mg/kg, I.P.): 15 min
Cmax ([1]; mouse, plasma, ip, 1 mg/kg, I.P., read-out: Cmax): 56 ng/mL
clearance [1, 14]: 122 mL/min/kg
Vd [1, 14]: 17.6 L/kg
Tmax [1, 15]: 0 min
clearance [1, 15]: 122 mL/min/kg
Vd [1, 15]: 17.6 L/kg
Tmax ([1]; mouse, plasma, subcutaneous, 1 mg/kg, Sub. Q): 15 min
Cmax ([1]; mouse, plasma, subcutaneous, 1 mg/kg, Sub. Q, read-out: Cmax): 42 ng/mL
% GI147211 Precipitated [2, 16]: 57.8%
% GI147211 Remaining in Solution [2, 16]: 42.2%
% GI147211 Precipitated [2, 17]: 85.2%
% GI147211 Remaining in Solution [2, 17]: 14.8%
% GI147211 Precipitated [2, 18]: 98.8%
% GI147211 Remaining in Solution [2, 18]: 1.2%
% GI147211 Precipitated [2, 19]: 99.1%
% GI147211 Remaining in Solution [2, 19]: 0.9%
% GI147211 Precipitated [2, 20]: 64.7%
% GI147211 Remaining in Solution [2, 20]: 35.3%
% GI147211 Precipitated [2, 21]: 6.2%
% GI147211 Remaining in Solution [2, 21]: 93.8%
% GI147211 Precipitated [2, 22]: 82.3%
% GI147211 Remaining in Solution [2, 22]: 17.7%
% GI147211 Precipitated [2, 23]: 98.8%
% GI147211 Remaining in Solution [2, 23]: 1.2%
% GI147211 Precipitated [2, 24]: 8.2%
% GI147211 Remaining in Solution [2, 24]: 91.8%
% GI147211 Precipitated [2, 25]: 97.9%
% GI147211 Remaining in Solution [2, 25]: 2.1%
% GI147211 Precipitated [2, 26]: 98.1%
% GI147211 Remaining in Solution [2, 26]: 1.9%
drug precipitated [2, 27]: ~99%
remained in solution [2, 27]: 0.5%
drug precipitated ([2]; chloride and phosphate): greater than 82%
drug precipitated ([2]; formate and aspartate): greater than 55%
drug precipitated ([2]; sucrose and lactobionate): less than 10%
drug precipitated ([2]; sulfate, citrate, and succinate): greater than 97%
IC50 [3]: 0.58 ng/mL
IC50 [4]: 111 ng/mL
IC50 [5]: 0.0866 ng/mL
IC50 [6]: 0.489 ng/mL
IC50 [7]: 3.61 ng/mL
IC50 [8]: 0.763 ng/mL
IC50 [9]: 4.31 ng/mL
IC50 [10]: 1.41 ng/mL
IC50 [11]: 6.42 ng/mL
IC50 [12]: 4.22 ng/mL
potency relative to topotecan [13]: 5-10 times

Reference: patent US6740335B1, “Liposomal camptothecin formulations” (priority 1997, dated 2004)
